Reference: ChEMBL document CHEMBL5465560, “Selectivity Literature for EUbOPEN Chemogenomic Library” (2024)
One block for each molecule: values may come before it.

Experiments:
[1] = molecular target: T1, SNF-related serine/threonine-protein kinase (Homo sapiens) (UniProt Q9NRH2); assay: Selectivity interaction (KinomeScan (DiscoverX)) EUB0000666a SNRK; settings: at 10 µM
T1 sequence (whole entry): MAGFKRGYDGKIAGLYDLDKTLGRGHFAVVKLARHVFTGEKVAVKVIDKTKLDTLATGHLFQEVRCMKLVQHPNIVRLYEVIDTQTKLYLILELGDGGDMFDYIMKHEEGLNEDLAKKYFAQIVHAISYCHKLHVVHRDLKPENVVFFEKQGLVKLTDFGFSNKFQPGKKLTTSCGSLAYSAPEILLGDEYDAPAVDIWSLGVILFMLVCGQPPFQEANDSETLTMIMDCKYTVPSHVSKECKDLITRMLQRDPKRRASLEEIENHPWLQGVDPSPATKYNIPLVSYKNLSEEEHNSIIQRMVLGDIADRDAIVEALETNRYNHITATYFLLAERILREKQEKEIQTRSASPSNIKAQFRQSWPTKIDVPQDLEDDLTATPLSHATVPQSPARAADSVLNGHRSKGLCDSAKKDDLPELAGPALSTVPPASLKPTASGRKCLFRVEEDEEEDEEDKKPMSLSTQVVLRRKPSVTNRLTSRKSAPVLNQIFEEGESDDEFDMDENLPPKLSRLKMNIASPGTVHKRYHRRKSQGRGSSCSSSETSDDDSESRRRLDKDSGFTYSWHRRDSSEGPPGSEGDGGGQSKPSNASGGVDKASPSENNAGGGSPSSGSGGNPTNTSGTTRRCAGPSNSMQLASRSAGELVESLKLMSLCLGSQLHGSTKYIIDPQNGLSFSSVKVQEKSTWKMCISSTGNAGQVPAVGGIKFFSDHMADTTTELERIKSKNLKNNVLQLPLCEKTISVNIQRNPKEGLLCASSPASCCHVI

[2] = molecular target: Cyclin-dependent kinase 2/cyclin A (Homo sapiens) (UniProt P24941+P20248+P78396); assay: Selectivity interaction (SelectScreen profiling (Invitrogen)) EUB0000607a CDK2; type: protein-complex assay; settings: at 2 µM
[3] = molecular target: Serine/threonine-protein kinase mTOR (Homo sapiens, UniProt P42345); assay: Selectivity interaction (ActivX KiNativ screen (kinase selectivity in THP-1 cell lysates)) EUB0000639a MTOR; type: subcellular; settings: lysate
[4] = molecular target: T2, Non-receptor tyrosine-protein kinase TNK1 (Homo sapiens) (UniProt Q13470); assay: Selectivity interaction (KinomeScan (DiscoverX)) EUB0000655a TNK1; settings: at 10 µM
T2 sequence (whole entry): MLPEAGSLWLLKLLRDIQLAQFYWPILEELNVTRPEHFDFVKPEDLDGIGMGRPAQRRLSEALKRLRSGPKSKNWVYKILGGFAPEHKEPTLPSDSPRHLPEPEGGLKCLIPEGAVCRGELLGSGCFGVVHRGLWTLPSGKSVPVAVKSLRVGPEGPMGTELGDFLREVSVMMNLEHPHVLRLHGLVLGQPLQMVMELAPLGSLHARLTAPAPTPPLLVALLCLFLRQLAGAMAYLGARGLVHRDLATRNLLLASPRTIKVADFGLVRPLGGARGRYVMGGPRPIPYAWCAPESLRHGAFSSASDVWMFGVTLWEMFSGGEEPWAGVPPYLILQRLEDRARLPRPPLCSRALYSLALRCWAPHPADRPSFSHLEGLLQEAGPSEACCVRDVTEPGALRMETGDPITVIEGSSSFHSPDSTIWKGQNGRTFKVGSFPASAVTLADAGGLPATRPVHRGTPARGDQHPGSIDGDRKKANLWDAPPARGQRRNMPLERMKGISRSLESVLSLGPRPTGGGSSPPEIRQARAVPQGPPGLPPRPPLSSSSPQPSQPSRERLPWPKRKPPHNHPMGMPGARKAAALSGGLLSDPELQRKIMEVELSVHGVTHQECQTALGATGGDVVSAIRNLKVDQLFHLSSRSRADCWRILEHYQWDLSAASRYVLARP

[5] = molecular target: Serine/threonine-protein kinase/endoribonuclease IRE1 (Homo sapiens) (UniProt O75460); settings: at 10 µM
Chain of Serine/threonine-protein kinase/endoribonuclease IRE1 (Homo sapiens) (O75460 19-977 limits assumed): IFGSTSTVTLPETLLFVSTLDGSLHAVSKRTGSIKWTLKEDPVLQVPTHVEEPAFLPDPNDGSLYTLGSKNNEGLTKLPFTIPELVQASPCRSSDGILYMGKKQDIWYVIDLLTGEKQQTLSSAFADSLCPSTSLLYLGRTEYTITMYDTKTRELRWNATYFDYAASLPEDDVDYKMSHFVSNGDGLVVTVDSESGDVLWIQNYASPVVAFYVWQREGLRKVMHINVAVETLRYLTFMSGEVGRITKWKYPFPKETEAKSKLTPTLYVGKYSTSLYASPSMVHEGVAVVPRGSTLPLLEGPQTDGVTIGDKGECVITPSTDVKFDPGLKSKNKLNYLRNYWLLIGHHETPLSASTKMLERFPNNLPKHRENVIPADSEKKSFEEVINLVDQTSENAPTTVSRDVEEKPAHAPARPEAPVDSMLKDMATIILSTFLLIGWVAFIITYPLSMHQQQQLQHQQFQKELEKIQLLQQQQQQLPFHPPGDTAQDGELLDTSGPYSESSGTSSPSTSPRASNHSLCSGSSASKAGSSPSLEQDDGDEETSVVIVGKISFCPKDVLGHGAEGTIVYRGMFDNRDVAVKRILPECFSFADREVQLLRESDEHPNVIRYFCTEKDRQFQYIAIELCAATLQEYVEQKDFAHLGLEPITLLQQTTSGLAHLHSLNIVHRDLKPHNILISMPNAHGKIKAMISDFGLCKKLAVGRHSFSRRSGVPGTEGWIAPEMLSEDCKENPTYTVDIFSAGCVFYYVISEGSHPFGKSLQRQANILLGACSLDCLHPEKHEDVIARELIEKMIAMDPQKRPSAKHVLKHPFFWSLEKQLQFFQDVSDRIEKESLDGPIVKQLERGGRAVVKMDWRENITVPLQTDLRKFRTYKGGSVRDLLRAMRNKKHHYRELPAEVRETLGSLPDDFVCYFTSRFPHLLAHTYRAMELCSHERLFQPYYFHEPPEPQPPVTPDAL

[6] = molecular target: T3, Inhibitor of nuclear factor kappa-B kinase subunit epsilon (Homo sapiens) (UniProt Q14164); assay: Selectivity interaction (ActivX KiNativ screen (ex vivo kinase selectivity in human PBMCs)) EUB0001619a IKBKE; type: cell-based; settings: PBMC, at 1 µM
T3 sequence (whole entry): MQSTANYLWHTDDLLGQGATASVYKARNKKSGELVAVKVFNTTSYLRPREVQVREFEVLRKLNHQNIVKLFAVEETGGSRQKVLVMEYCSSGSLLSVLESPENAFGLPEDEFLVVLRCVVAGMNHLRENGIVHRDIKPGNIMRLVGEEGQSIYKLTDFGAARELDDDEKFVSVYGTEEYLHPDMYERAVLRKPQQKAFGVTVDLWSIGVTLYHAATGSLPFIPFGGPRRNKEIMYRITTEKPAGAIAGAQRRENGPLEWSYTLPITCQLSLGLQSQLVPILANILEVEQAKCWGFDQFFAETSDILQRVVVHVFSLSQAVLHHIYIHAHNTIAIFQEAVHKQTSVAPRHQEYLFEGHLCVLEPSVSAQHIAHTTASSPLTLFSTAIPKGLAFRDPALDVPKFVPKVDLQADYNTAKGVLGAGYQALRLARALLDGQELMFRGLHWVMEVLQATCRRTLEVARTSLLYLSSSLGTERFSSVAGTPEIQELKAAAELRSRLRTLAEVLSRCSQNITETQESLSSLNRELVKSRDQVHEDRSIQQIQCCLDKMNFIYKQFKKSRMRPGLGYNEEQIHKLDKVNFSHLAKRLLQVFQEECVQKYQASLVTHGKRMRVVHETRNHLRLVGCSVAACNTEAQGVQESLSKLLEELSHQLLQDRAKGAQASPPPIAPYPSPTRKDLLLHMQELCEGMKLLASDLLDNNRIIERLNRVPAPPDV

Structure (SMILES): O=C(NOC[C@H](O)CO)c1ccc(F)c(F)c1Nc1ccc(I)cc1F
% of control [1]: 100%

Structure (SMILES): CNC(=O)Nc1ccc(-c2nc(N3CC4CCC(C3)O4)c3cnn(C4CCC5(CC4)OCCO5)c3n2)cc1
% of inhibition [2]: 0%

% of inhibition ([3]; at 0.01 µM): 8%
% of inhibition ([3]; at 0.04 µM): 3%
% of inhibition ([3]; at 0.2 µM): 4.3%
% of inhibition ([3]; at 1 µM): 9.9%
% of inhibition ([3]; at 5 µM): -4.7%
Structure (SMILES): CC[C@@H]1[C@H](F)C(=O)N[C@@H]1COc1nccc2cc(C(N)=O)c(OC)cc12 [ZIMLOVISERTIB]

Structure (SMILES): CN(C)CCOc1ccc(-c2nc(-c3ccncc3)c(-c3ccc4c(c3)CC/C4=N\O)[nH]2)cc1
% of control [4]: 100%

Structure (SMILES): Cc1cc([C@@H](C)Nc2ccccc2C(=O)O)c2nc(N3CCOCC3)cc(=O)n2c1 [AZD-6482]
% of control [5]: 91%

Structure (SMILES): N#Cc1cccc(-c2c[nH]c3ncnc(N4CCOCC4)c23)c1
% of inhibition [6]: 7%
